Reference: patent US8022206B2 (OSI Pharmaceuticals, LLC, priority 2008, dated 2011)

Tests used:
MET (human) = MET (human) (Homo sapiens, UniProt P08581); test: MET (human) AlphaScreen kinase assay, Km of ATP; assay type: biochemical; conditions: AlphaScreen, Km of ATP; read-out: Met biochemical IC50
In short: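 Human MET at lot-optimised concentration in 50 mM Tris pH 7.4 buffer with 1 mM DTT, compound at 1% DMSO final; enzyme starts the reaction, 60 min at RT.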

RON (human) = RON (human) (Homo sapiens, UniProt Q04912); test: RON (human) AlphaScreen kinase assay, Km of ATP; assay type: biochemical; conditions: AlphaScreen, Km of ATP; read-out: RON biochemical IC50
Chain of RON (human) (Q04912 25-1400): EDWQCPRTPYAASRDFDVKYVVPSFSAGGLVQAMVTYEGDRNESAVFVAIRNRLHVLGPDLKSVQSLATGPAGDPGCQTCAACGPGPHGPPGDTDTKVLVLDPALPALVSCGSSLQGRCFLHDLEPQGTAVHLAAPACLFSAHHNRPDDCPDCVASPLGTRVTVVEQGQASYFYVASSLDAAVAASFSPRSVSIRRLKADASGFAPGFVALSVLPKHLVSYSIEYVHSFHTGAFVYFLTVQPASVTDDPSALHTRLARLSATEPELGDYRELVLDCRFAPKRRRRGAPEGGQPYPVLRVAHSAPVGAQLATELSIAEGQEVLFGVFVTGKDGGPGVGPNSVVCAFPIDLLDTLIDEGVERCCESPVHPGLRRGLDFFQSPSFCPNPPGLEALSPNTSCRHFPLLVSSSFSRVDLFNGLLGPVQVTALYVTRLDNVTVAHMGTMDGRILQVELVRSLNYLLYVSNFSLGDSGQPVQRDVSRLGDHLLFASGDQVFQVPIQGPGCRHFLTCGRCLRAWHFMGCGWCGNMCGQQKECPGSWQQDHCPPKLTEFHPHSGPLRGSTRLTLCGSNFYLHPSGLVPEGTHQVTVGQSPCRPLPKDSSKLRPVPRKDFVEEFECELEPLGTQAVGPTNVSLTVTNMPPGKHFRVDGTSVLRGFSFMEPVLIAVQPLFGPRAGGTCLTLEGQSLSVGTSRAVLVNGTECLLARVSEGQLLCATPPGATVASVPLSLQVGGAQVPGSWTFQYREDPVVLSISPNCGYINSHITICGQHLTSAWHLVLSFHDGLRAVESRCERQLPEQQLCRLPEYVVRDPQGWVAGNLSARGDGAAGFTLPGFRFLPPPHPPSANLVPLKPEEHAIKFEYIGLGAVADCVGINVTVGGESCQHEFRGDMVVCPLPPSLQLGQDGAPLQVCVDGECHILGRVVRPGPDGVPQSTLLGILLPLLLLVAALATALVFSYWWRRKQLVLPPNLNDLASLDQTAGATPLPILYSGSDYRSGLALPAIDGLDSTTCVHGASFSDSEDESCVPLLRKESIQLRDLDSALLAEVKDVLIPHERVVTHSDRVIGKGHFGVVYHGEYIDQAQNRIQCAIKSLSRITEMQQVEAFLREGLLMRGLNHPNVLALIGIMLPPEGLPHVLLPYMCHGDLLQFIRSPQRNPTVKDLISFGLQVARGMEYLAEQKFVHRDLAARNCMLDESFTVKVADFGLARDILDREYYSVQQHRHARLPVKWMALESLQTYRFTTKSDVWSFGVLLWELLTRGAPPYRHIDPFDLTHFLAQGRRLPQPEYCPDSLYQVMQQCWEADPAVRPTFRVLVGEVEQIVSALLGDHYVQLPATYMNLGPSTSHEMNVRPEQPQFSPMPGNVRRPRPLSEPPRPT
In short: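 Reaction was started with enzyme and run 30 min at RT. PT66 donor/acceptor beads in an EDTA-containing Tris pH 7.5 buffer were then added, and the signal was read after 1 h.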

Chain of MET (human) (P08581 25-1390): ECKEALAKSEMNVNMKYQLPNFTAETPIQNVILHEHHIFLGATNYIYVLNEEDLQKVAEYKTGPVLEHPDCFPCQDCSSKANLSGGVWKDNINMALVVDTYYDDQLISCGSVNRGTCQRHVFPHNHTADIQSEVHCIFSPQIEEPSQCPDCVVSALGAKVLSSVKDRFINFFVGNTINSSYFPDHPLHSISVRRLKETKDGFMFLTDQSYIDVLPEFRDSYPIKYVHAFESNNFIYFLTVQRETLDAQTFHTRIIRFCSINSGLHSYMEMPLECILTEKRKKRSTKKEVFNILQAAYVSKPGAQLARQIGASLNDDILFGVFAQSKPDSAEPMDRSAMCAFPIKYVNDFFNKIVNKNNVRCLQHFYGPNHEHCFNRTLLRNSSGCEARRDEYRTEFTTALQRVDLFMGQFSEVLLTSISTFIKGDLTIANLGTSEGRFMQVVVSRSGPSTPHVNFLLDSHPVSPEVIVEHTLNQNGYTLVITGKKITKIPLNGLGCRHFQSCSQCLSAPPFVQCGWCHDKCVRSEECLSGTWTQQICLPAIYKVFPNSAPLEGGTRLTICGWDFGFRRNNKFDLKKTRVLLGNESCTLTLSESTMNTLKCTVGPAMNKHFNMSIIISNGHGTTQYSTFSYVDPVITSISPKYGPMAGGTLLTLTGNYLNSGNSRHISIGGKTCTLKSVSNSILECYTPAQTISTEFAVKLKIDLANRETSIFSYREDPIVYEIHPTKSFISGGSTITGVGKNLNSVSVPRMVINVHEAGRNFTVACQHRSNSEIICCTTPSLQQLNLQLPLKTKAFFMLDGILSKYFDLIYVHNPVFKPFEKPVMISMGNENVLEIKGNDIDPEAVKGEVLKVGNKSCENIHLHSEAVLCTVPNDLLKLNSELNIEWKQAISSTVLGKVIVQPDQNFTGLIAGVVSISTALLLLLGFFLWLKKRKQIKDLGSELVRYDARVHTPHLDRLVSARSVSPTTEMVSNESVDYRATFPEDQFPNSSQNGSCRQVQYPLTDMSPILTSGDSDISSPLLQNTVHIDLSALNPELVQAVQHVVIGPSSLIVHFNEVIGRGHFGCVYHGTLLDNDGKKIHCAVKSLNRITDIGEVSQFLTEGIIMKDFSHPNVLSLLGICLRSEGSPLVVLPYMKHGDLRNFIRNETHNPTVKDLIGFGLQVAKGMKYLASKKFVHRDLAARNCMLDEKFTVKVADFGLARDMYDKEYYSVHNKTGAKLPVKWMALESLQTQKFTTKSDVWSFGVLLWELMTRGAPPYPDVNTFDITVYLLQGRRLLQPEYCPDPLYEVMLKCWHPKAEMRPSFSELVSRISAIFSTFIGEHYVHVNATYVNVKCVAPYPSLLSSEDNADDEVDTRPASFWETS

Row | SMILES | IC50 (MET (human)) [nM] | IC50 (RON (human)) [nM]
1 | C[C@@H](Oc1c(N)ncc2c(-c3cnc(N)nc3)coc12)c1c(Cl)ccc(F)c1Cl [Example 113, 3-(2-Amino-pyrimidin-5-yl)-7-[(R)-1-(2,6-dichloro-3-fluorophenyl)ethoxy]furo[3,2-c]pyridin-6-ylamine] | 500 to 5000 | 500 to 5000
2 | CC(=O)c1ccc(-c2coc3c(O[C@H](C)c4c(Cl)ccc(F)c4Cl)c(N)ncc23)s1 [Example 114, 1-(5-{6-Amino-7-[(R)-1-(2,6-dichloro-3-fluorophenyl)ethoxy]furo[3,2-c]pyridin-3-yl}thiophen-2-yl)ethanone] | 500 to 5000 | 500 to 5000
3 | Cc1csc(-c2coc3c(O[C@H](C)c4c(Cl)ccc(F)c4Cl)c(N)ncc23)c1 [Example 115, 7-[(R)-1-(2,6-Dichloro-3-fluorophenyl)ethoxy]-3-(4-methylthiophen-2-yl)furo[3,2-c]pyridin-6-ylamine] | 500 to 5000 | 500 to 5000
4 | Cc1ccsc1-c1coc2c(O[C@H](C)c3c(Cl)ccc(F)c3Cl)c(N)ncc12 [Example 116, 7-[(R)-1-(2,6-Dichloro-3-fluorophenyl)ethoxy]-3-(3-methylthiophen-2-yl)furo[3,2-c]pyridin-6-ylamine] | 500 to 5000 | 5000 to 20000
5 | Cc1ccc(-c2coc3c(O[C@H](C)c4c(Cl)ccc(F)c4Cl)c(N)ncc23)o1 [Example 117] | 500 to 5000 | 500 to 5000
6 | C[C@@H](Oc1c(N)ncc2c(-c3ccc(CO)nc3)coc12)c1c(Cl)ccc(F)c1Cl [Example 118, (5-{6-Amino-7-[(R)-1-(2,6-dichloro-3-fluorophenyl)ethoxy]furo[3,2-c]pyridin-3-yl}pyridin-2-yl)methanol] | < 500 | 500 to 5000
7 | C[C@@H](Oc1c(N)ncc2c(-c3ccc([N+](=O)[O-])nc3)coc12)c1c(Cl)ccc(F)c1Cl [Example 119, 7-[(R)-1-(2,6-Dichloro-3-fluorophenyl)ethoxy]-3-(6-nitropyridin-3-yl)furo[3,2-c]pyridin-6-ylamine] | 500 to 5000 | 5000 to 20000
8 | CC(=O)Nc1ccc(-c2coc3c(O[C@H](C)c4c(Cl)ccc(F)c4Cl)c(N)ncc23)cn1 [Example 120, N-(5-{6-Amino-7-[(R)-1-(2,6-dichloro-3-fluorophenyl)ethoxy]furo[3,2-c]pyridin-3-yl}pyridin-2-yl)acetamide] | 500 to 5000 | 500 to 5000
9 | C[C@@H](Oc1c(N)ncc2c(-c3cccn3C)coc12)c1c(Cl)ccc(F)c1Cl [Example 121, 7-[(R)-1-(2,6-Dichloro-3-fluorophenyl)ethoxy]-3-(1-methyl-1H-pyrrol-2-yl)furo[3,2-c]pyridin-6-ylamine] | 500 to 5000 | 500 to 5000
10 | C[C@@H](Oc1c(N)ncc2c(-c3ccc(OCCCN(C)C)nc3)coc12)c1c(Cl)ccc(F)c1Cl [Example 122, 7-[(R)-1-(2,6-Dichloro-3-fluorophenyl)ethoxy]-3-[6-(3-dimethylaminopropoxy)pyridin-3-yl]furo[3,2-c]pyridin-6-ylamine] | < 500 | < 500
11 | C[C@@H](Oc1c(N)ncc2c(-c3cnc(N4CCN(C)CC4)nc3)coc12)c1c(Cl)ccc(F)c1Cl [Example 123, 7-[(R)-1-(2,6-Dichloro-3-fluorophenyl)ethoxy]-3-[2-(4-methylpiperazin-1-yl)pyrimidin-5-yl]furo[3,2-c]pyridin-6-ylamine] | 500 to 5000 | 500 to 5000
12 | C[C@@H](Oc1c(N)ncc2c(-c3cnc(N(C)C)nc3)coc12)c1c(Cl)ccc(F)c1Cl [Example 124, 7-[(R)-1-(2,6-Dichloro-3-fluorophenyl)ethoxy]-3-(2-dimethylaminopyrimidin-5-yl)furo[3,2-c]pyridin-6-ylamine] | 500 to 5000 | 500 to 5000
13 | C[C@@H](Oc1c(N)ncc2c(-c3ccc(C#N)nc3)coc12)c1c(Cl)ccc(F)c1Cl [Example 125, 5-{6-Amino-7-[(R)-1-(2,6-dichloro-3-fluorophenyl)-ethoxy]furo[3,2-c]pyridin-3-yl}pyridine-2-carbonitrile] | 500 to 5000 | 5000 to 20000
14 | C[C@@H](Oc1c(N)ncc2c(-c3cccc(O)c3)coc12)c1c(Cl)ccc(F)c1Cl [Example 128, 3-{6-Amino-7-[(R)-(2,6-dichloro-3-fluorophenyl)ethoxy]-furo[3,2-c]pyridin-3-yl}phenol] | 500 to 5000 | 500 to 5000
15 | C[C@@H](Oc1c(N)ncc2c(-c3ccc4cc[nH]c4c3)coc12)c1c(Cl)ccc(F)c1Cl [Example 129, 7-[(R)-(2,6-Dichloro-3-fluorophenyl)ethoxy]-3-(1H-indol-6-yl)furo[3,2-c]pyridin-6-ylamine] | 500 to 5000 | 500 to 5000
16 | C[C@@H](Oc1c(N)ncc2c(-c3ccc(N4CCNCC4)nc3)coc12)c1c(Cl)ccc(F)c1Cl [Example 130, 7-[(R)-(2,6-Dichloro-3-fluorophenyl)ethoxy]-3-(6-piperazin-1-yl-pyridin-3-yl)furo[3,2-c]pyridin-6-ylamine] | < 500 | < 500
17 | C[C@@H](Oc1c(N)ncc2c(-c3ccc(N)nc3)coc12)c1c(Cl)ccc(F)c1Cl [Example 131, 3-(6-Amino-pyridin-3-yl)-7-[(R)-(2,6-dichloro-3-fluorophenyl)ethoxy]furo[3,2-c]pyridin-6-ylamine] | < 500 | 500 to 5000
18 | C[C@@H](Oc1c(N)ncc2c(-c3ccnc(N4CCNCC4)c3)coc12)c1c(Cl)ccc(F)c1Cl [Example 132, 7-[(R)-(2,6-Dichloro-3-fluorophenyl)ethoxy]-3-(2-piperazin-1-yl-pyridin-4-yl)furo[3,2-c]pyridin-6-ylamine] | < 500 | < 500
19 | C[C@@H](Oc1c(N)ncc2c(-c3ccc[nH]3)coc12)c1c(Cl)ccc(F)c1Cl [Example 133, 7-[(R)-1-(2,6-Dichloro-3-fluorophenyl)ethoxy]-3-(1H-pyrrol-2-yl)furo[3,2-c]pyridin-6-amine] | 500 to 5000 | 500 to 5000
20 | C[C@@H](Oc1c(N)ncc2c(-c3ccsc3)coc12)c1c(Cl)ccc(F)c1Cl [Example 134, 7-[(R)-(2,6-Dichloro-3-fluorophenyl)ethoxy]-3-thiophen-3-ylfuro[3,2-c]pyridin-6-ylamine] | 500 to 5000 | 500 to 5000
21 | C[C@@H](Oc1c(N)ncc2c(-c3nccs3)coc12)c1c(Cl)ccc(F)c1Cl [Example 135, 7-[(R)-1-(2,6-Dichloro-3-fluorophenyl)-ethoxy]-3-thiazol-2-ylfuro[3,2-c]pyridin-6-ylamine] | 500 to 5000 | 500 to 5000
22 | C[C@@H](Oc1c(N)ncc2c(-c3cscn3)coc12)c1c(Cl)ccc(F)c1Cl [Example 136, 7-[(R)-1-(2,6-Dichloro-3-fluorophenyl)-ethoxy]-3-thiazol-4-ylfuro[3,2-c]pyridin-6-ylamine] | 500 to 5000 | 500 to 5000
23 | C[C@@H](Oc1c(N)ncc2c(C3=CCOCC3)coc12)c1c(Cl)ccc(F)c1Cl [Example 138, 7-[(R)-1-(2,6-Dichloro-3-fluorophenyl)-ethoxy]-3-(3,6-dihydro-2H-pyran-4-yl)-furo[3,2-c]pyridin-6-ylamine] | < 500 | 500 to 5000
24 | C[C@@H](Oc1c(N)ncc2c(C3=CCSCC3)coc12)c1c(Cl)ccc(F)c1Cl [Example 139, 7-[(R)-1-(2,6-Dichloro-3-fluorophenyl)-ethoxy]-3-(3,6-dihydro-2H-thiopyran-4-yl)-furo[3,2-c]pyridin-6-ylamine] | < 500 | 500 to 5000
